Assay results: ChEMBL document CHEMBL4627293, “Synthesis and in vitro activity of asymmetric indole-based bisamidine compounds against Gram-positive and Gram-negative pathogens” (2020)
≈ marks a conversion by molar mass, not a printed value.

Tests used:
Format in all cases: functional
[1] = test system: Staphylococcus aureus; experiment: Antimicrobial activity against methicillin-sensitive Staphylococcus aureus ATCC 29213
[2] = test system: Staphylococcus aureus; experiment: Antimicrobial activity against methicillin- resistant Staphylococcus aureus ATCC 33591
[3] = test system: Enterococcus faecalis; experiment: Antimicrobial activity against Vancomycin-sensitive Enterococcus faecalis ATCC 29212
[4] = test system: Enterococcus faecalis; experiment: Antimicrobial activity against Vancomycin-resistant Enterococcus faecalis ATCC 51299
[5] = test system: Escherichia coli; experiment: Antimicrobial activity against Escherichia coli ATCC 25922
[6] = test system: Klebsiella pneumoniae; experiment: Antimicrobial activity against ESBL-producing Klebsiella pneumoniae ATCC 700603
[7] = test system: Klebsiella pneumoniae; experiment: Antimicrobial activity against NDM-1 producing Klebsiella pneumoniae ATCC BAA-2146
[8] = test system: Pseudomonas aeruginosa; experiment: Antimicrobial activity against Pseudomonas aeruginosa ATCC 27853
[9] = test system: Klebsiella aerogenes; experiment: Antimicrobial activity against Enterobacter aerogenes ATCC 45102
[10] = test system: Citrobacter freundii; experiment: Antimicrobial activity against Citrobacter freundii ATCC 43864
[11] = test system: Providencia rettgeri; experiment: Antimicrobial activity against Providencia rettgeri ATCC 31052
[12] = test system: Proteus vulgaris; experiment: Antimicrobial activity against Proteus vulgaris ATCC 29905
[13] = test system: Staphylococcus epidermidis; experiment: Antimicrobial activity against methicillin-susceptible Staphylococcus epidermidis ATCC 12228
[14] = test system: Enterococcus faecium; experiment: Antimicrobial activity against vancomycin-resistant Enterococcus faecium ATCC 700221
[15] = test system: Klebsiella pneumoniae; experiment: Antimicrobial activity against Klebsiella pneumoniae 7
[16] = test system: Acinetobacter calcoaceticus; experiment: Antimicrobial activity against Acinetobacter calcoaceticus ATCC 19606
[17] = test system: Escherichia coli; experiment: Potency index, ratio of MIC for 2-[4-[4-[6-(N,N-dimethylcarbamimidoyl)-1H-indol-2-yl]phenoxy]phenyl]-N,N-dimethyl-1H-indole-6-carboxamidine to MIC for test compound against Escherichia coli ATCC 25922
[18] = test system: Klebsiella pneumoniae; experiment: Potency index, ratio of MIC for 2-[4-[4-[6-(N,N-dimethylcarbamimidoyl)-1H-indol-2-yl]phenoxy]phenyl]-N,N-dimethyl-1H-indole-6-carboxamidine to MIC for test compound against ESBL-producing Klebsiella pneumoniae ATCC 700603
[19] = test system: Klebsiella pneumoniae; experiment: Potency index, ratio of MIC for 2-[4-[4-[6-(N,N-dimethylcarbamimidoyl)-1H-indol-2-yl]phenoxy]phenyl]-N,N-dimethyl-1H-indole-6-carboxamidine to MIC for test compound against Klebsiella pneumoniae 7
[20] = test system: Klebsiella pneumoniae; experiment: Potency index, ratio of MIC for 2-[4-[4-[6-(N,N-dimethylcarbamimidoyl)-1H-indol-2-yl]phenoxy]phenyl]-N,N-dimethyl-1H-indole-6-carboxamidine to MIC for test compound against NDM-1 producing Klebsiella pneumoniae ATCC BAA-2146
[21] = test system: Pseudomonas aeruginosa; experiment: Potency index, ratio of MIC for 2-[4-[4-[6-(N,N-dimethylcarbamimidoyl)-1H-indol-2-yl]phenoxy]phenyl]-N,N-dimethyl-1H-indole-6-carboxamidine to MIC for test compound against Pseudomonas aeruginosa ATCC 27853
[22] = test system: Citrobacter freundii; experiment: Potency index, ratio of MIC for 2-[4-[4-[6-(N,N-dimethylcarbamimidoyl)-1H-indol-2-yl]phenoxy]phenyl]-N,N-dimethyl-1H-indole-6-carboxamidine to MIC for test compound against Citrobacter freundii ATCC 43864
[23] = test system: Klebsiella pneumoniae; experiment: Potency index, ratio of MIC for Levofloxacin to MIC for test compound against NDM-1 producing Klebsiella pneumoniae ATCC BAA-2146

Row | Structure (SMILES) | MIC [1] [µg/mL] | MIC [2] [µg/mL] | MIC [3] [µg/mL] | MIC [4] [µg/mL] | MIC [5] [µg/mL] | MIC [6] [µg/mL] | MIC [7] [µg/mL] | MIC [8] [µg/mL] | MIC [9] [µg/mL] | MIC [10] [µg/mL] | MIC [11] [µg/mL] | MIC [12] [µg/mL] | MIC [13] [µg/mL] | MIC [14] [µg/mL] | MIC [15] [µg/mL] | MIC [16] [µg/mL] | also measured
1 | CNC(=N)c1ccc2cc(-c3ccc(Oc4ccc(-c5cc6ccc(C(=N)NC)cc6[nH]5)cc4)cc3)[nH]c2c1 | 1 (≈ 1.95 µM) | 1 (≈ 1.95 µM) | 1 (≈ 1.95 µM) | 1 (≈ 1.95 µM) | 128 (≈ 250 µM) | > 128 | > 128 | > 128 | > 128 | > 128 | > 128 | > 128 |  |  |  |  | 
2 | C/N=C(\NC)c1ccc2cc(-c3ccc(Oc4ccc(-c5cc6ccc(C(=N)NC)cc6[nH]5)cc4)cc3)[nH]c2c1 | 0.5 (≈ 0.949 µM) | 0.25 (≈ 0.475 µM) | 1 (≈ 1.9 µM) | 0.25 (≈ 0.475 µM) | 16 (≈ 30.4 µM) | 64 (≈ 122 µM) | 32 (≈ 60.8 µM) | 64 (≈ 122 µM) | 64 (≈ 122 µM) | 128 (≈ 243 µM) | 128 (≈ 243 µM) | 128 (≈ 243 µM) |  |  |  |  | 
3 | C/N=C(\NC)c1ccc2cc(-c3ccc(Oc4ccc(-c5cc6ccc(/C(=N\C)NC)cc6[nH]5)cc4)cc3)[nH]c2c1 | 8 (≈ 14.8 µM) | 8 (≈ 14.8 µM) | 8 (≈ 14.8 µM) | 16 (≈ 29.6 µM) | 64 (≈ 118 µM) | > 128 | 128 (≈ 237 µM) | > 128 | > 128 | > 128 | > 128 | > 128 |  |  |  |  | 
4 | C[C@H]1COc2c(N3CCN(C)CC3)c(F)cc3c(=O)c(C(=O)O)cn1c23.C[C@H]1COc2c(N3CCN(C)CC3)c(F)cc3c(=O)c(C(=O)O)cn1c23.O [LEVOFLOXACIN] | 0.25 | 0.25 | 1 | 1 |  | 2 | > 128 |  | 0.25 | 0.03 | 0.125 | 0.125 | 0.25 | 32 | 16 | 0.25 | 
5 | CN(C)C(=N)c1ccc2cc(-c3ccc(Oc4ccc(-c5cc6ccc(C(=N)N(C)C)cc6[nH]5)cn4)cc3)[nH]c2c1 | 0.5 (≈ 0.923 µM) | 0.25 (≈ 0.462 µM) | 2 (≈ 3.69 µM) | 2 (≈ 3.69 µM) | 4 (≈ 7.38 µM) | 8 (≈ 14.8 µM) | 8 (≈ 14.8 µM) | 64 (≈ 118 µM) |  | 4 (≈ 7.38 µM) | 8 (≈ 14.8 µM) | 8 (≈ 14.8 µM) | 0.25 (≈ 0.462 µM) | 1 (≈ 1.85 µM) | 4 (≈ 7.38 µM) | 128 (≈ 236 µM) | 
6 | CN(C)C(=N)c1ccc2cc(-c3ccc(Oc4ccc(-c5cc6ccc(C(=N)N(C)C)cc6[nH]5)c(C(F)(F)F)c4)cn3)[nH]c2c1 | 1 (≈ 1.64 µM) | 0.5 (≈ 0.82 µM) | 2 (≈ 3.28 µM) | 2 (≈ 3.28 µM) | 8 (≈ 13.1 µM) | 32 (≈ 52.5 µM) | 32 (≈ 52.5 µM) | > 128 |  | 16 (≈ 26.2 µM) | 128 (≈ 210 µM) | 32 (≈ 52.5 µM) | 0.5 (≈ 0.82 µM) | 1 (≈ 1.64 µM) | 32 (≈ 52.5 µM) | > 128 | 
7 | CNC(=N)c1ccc2cc(-c3ccc(Oc4ccc(-c5cc6ccc(C(=N)NC)cc6[nH]5)c(OC)c4)cc3)[nH]c2c1 | 1 (≈ 1.84 µM) | 1 (≈ 1.84 µM) | 0.5 (≈ 0.921 µM) | 0.5 (≈ 0.921 µM) | 16 (≈ 29.5 µM) | 128 (≈ 236 µM) | 32 (≈ 59 µM) | > 128 |  | 32 (≈ 59 µM) | > 128 | 128 (≈ 236 µM) | 0.25 (≈ 0.461 µM) | 1 (≈ 1.84 µM) | 64 (≈ 118 µM) | > 128 | 
8 | CN(C)C(=N)c1ccc2cc(-c3ccc(Oc4ccc(-c5cc6ccc(C(=N)N(C)C)cc6[nH]5)nc4)cc3)[nH]c2c1 | 0.125 (≈ 0.231 µM) | 0.125 (≈ 0.231 µM) | 0.5 (≈ 0.923 µM) | 0.5 (≈ 0.923 µM) | 1 (≈ 1.85 µM) | 4 (≈ 7.38 µM) | 2 (≈ 3.69 µM) | 32 (≈ 59.1 µM) |  | 2 (≈ 3.69 µM) | 4 (≈ 7.38 µM) | 4 (≈ 7.38 µM) | 0.25 (≈ 0.462 µM) | 1 (≈ 1.85 µM) | 2 (≈ 3.69 µM) | 64 (≈ 118 µM) | Ratio [17]: 4; Ratio [18]: 4; Ratio [19]: 4; Ratio [20]: 4; Ratio [21]: 4; Ratio [22]: 4
9 | COc1cc(Oc2ccc(-c3cc4ccc(C(=N)N(C)C)cc4[nH]3)cc2)ccc1-c1cc2ccc(C(=N)N(C)C)cc2[nH]1 | 0.25 (≈ 0.438 µM) | 0.25 (≈ 0.438 µM) | 0.5 (≈ 0.876 µM) | 0.5 (≈ 0.876 µM) | 2 (≈ 3.5 µM) | 8 (≈ 14 µM) | 8 (≈ 14 µM) | 128 (≈ 224 µM) |  | 4 (≈ 7.01 µM) | 8 (≈ 14 µM) | 8 (≈ 14 µM) | 0.25 (≈ 0.438 µM) | 1 (≈ 1.75 µM) | 8 (≈ 14 µM) | 64 (≈ 112 µM) | Ratio [23]: 16
10 | CC(C)NC(=N)c1ccc2cc(-c3ccc(Oc4ccc(-c5cc6ccc(C(=N)NC(C)C)cc6[nH]5)c(C(F)(F)F)c4)cc3)[nH]c2c1 | 2 (≈ 3.14 µM) | 2 (≈ 3.14 µM) | 2 (≈ 3.14 µM) | 2 (≈ 3.14 µM) | 16 (≈ 25.1 µM) | 16 (≈ 25.1 µM) | 16 (≈ 25.1 µM) | 32 (≈ 50.3 µM) |  | 16 (≈ 25.1 µM) | 64 (≈ 101 µM) | 16 (≈ 25.1 µM) | 2 (≈ 3.14 µM) | 2 (≈ 3.14 µM) | 16 (≈ 25.1 µM) | 64 (≈ 101 µM) | 
